Measured values reported in US8618154B2, “LXR modulators” (Bristol-Myers Squibb Company, priority 2009, dated 2013).
Where two headings read alike, the source gives them in different places.

Legend:
[1] = High throughput metabolic stability in human microsomes; type: in vitro ADME; conditions: parent compound remaining at 10 minutes, human liver microsomes
Protocol: The metabolic stability assay evaluates CYP-mediated metabolic stability in vitro using Human liver microsomes after a ten-minute incubation.
Test compound is received as a 3.5 mM stock solution in 100 percent DMSO. Compound is diluted to create a 50 μM acetonitrile (ACN) solution containing 1.4% DMSO, which is then used as a 100× stock for incubation with human liver microsomes. Each compound is tested in duplicate. Compound, NADPH and liver microsome solutions are combined for incubation in three steps: • 1) 152 μl of liver microsome suspension, protein concentration of 1.1 mg/ml in 100 mM NaPi, pH 7.4, 5 mM MgCl2 buffer, is pre-warmed at 37° C. • 2) 1.7 μl of 50 μM compound (98.6% ACN, 1.4% DMSO) is added to the same tube and pre-incubated at 37° C. for 5 minutes. • 3) The reaction is initiated by the addition of 17 μl of pre-warmed 10 mM NADPH solution in 100 mM NaPi, pH 7.4.
Reaction components are mixed well, and 75 μl are immediately transferred into 150 μl quench/stop solution (zero-time point, T0). Reactions are incubated at 37° C. for 10 minutes and then an additional 75 μl aliquot is transferred into 150 μl quench solution. Acetonitrile containing 100 μM DMN (a UV standard for injection quality control), is used as the quench solution to terminate metabolic reactions.
Quenched mixtures are centrifuged at 1500 rpm (˜500× g) in an Allegra X-12 centrifuge, SX4750 rotor (Beckman Coulter Inc., Fullerton, Calif.) for fifteen minutes to pellet denatured microsomes. A volume of 90 μl of supernatant extract, containing the mixture of parent compound and its metabolites, is then transferred to a separate 96-well plate for UV-LC/MS-MS analysis to determine the per cent of parent compound that is remaining in the mixture.
The mass spectrometric conditions obtained from automated infusion are used to analyze incubation samples from the Metabolic Stability assay. The injection volume is 5 μl and the flow rate is 0.8 ml/min. The gradient used is show in the table below. All samples are injected with the gradient using mobile phase A and B first. If necessary (for instance, for chromatographic reasons), samples are re-injected with the same gradient, but using mobile phase C and D. All LC-MS/MS analysis parameters are captured electronically in the raw data files.
Peak integration is performed with the Xcalibur™ software. The percent remaining calculation is performed by comparing the LC-MS/MS peak areas from the T10minute samples to those from the T0minute samples for each compound.

[2] = system: ABCA1 gene expression; assay: Human whole blood assay (hWBA), ABCA1 mRNA induction; type: cell-based; conditions: for Emax: read-out: hWBA hABCA1 L30 Max P (%)
Protocol: Human whole blood was collected in EDTA containing tubes and 0.5 mL aliquots were immediately mixed in a 96 well block with the appropriate serial dilution of test compound, in 0.5% DMSO. Compounds were incubated with blood at 37° C. with constant rocking for 4 hours. After incubation, cells were lysed in ABI Nucleic Acid Purification Lysis Solution (Applied Biosystems catalog #4305895) and frozen at −80° C. Following cell lysis, total RNA was purified using an ABI 6100 RNA prep station according to the protocol provided by the manufacturer. cDNAs were synthesized, and mRNAs were quantitated using SYBR-Green Quantitative PCR (Q-PCR) on an ABI Prism 7900HT Sequence Detection System and reagents from Quanta Bioscience Inc (Quanta Bioscience catalog #95047 and 95055).
The quantity of each mRNA was determined by the ΔΔCT method (Michael W. Pfaffl. A new mathematical model for relative quantification in real-time RT-PCR. Nucleic Acids Research, 2001, Vol. 29, No. 9 e45) and normalized to the quantity of two control mRNAs, i.e. ribosomal protein L-30 (L-30) and beta-2-microglobulin (B2M). The induction of ABCA1 and ABCG1 by test compound was graphed as a percent of the reference compound, 2-(4-(5-(5-cyano-1-(2,4-difluorobenzyl)-6-oxo-4-(trifluoromethyl)-1,6-dihydropyridin-2-yl)thiophen-2-yl)-3-methylphenyl)acetic acid, and potency (EC50) and activity (% MAX) were calculated by fitting a sigmoidal response curve as a function of log transformed compound concentration using XLFit software according to the equation y=A+((B−A)/(1+((C/x)^D))).

[3] = Homo sapiens, 4 h, percent of reference pan agonist (maximal activity defined as 100%)
[4] = human whole blood, 4 hours, ABCA1 mRNA normalized to L30, read-out: hWBA hABCA1 L30 EC50

Structure (SMILES)	Human Microsome % Remaining [1] [%]	Emax [2, 3] [%]	EC50 [2, 4] [nM]	EC50 ([2]; Homo sapiens, 4 h, read-out: hWBA hABCA1 L30 EC50 (nM)) [nM]	Emax ([2]; Homo sapiens, 4 h) [%]
Cc1cc(-c2cc(F)c(CO)c(S(C)(=O)=O)c2)ccc1-n1cc(C(C)(C)O)nc1C(C)(C)c1c(F)cccc1Cl [Example 2, 2-(2-(2-(2-chloro-6-fluorophenyl)propan-2-yl)-1-(3′-fluoro-4′-(hydroxymethyl)-3-methyl-5′-(methylsulfonyl)biphenyl-4-yl)-1H-imidazol-4-yl)propan-2-ol]	>80	18	< 100		
CC(C)(O)c1cn(-c2ccc(-c3cc(F)c(CO)c(S(C)(=O)=O)c3)cc2F)c(C(C)(C)c2ccccc2Cl)n1 [Example 6, 2-(2-(2-(2-Chloro-phenyl)propan-2-yl)-1-(3,3′-difluoro-4′-hydroxymethyl-5′-(methylsulfonyl)biphenyl-4-yl)-1H-imidazol-4-yl)-propan-2-ol]	>80	35	< 100		
CC(C)(O)c1cn(-c2ccc(-c3cc(F)c(CO)c(S(C)(=O)=O)c3)cc2)c(C(C)(C)c2cccc(F)c2Cl)n1 [Example 4, 2-(2-(2-(2-chloro-3-fluorophenyl)propan-2-yl)-1-(3′-fluoro-4′-(hydroxymethyl)-5′-(methylsulfonyl)biphenyl-4-yl)-1H-imidazol-4-yl)propan-2-ol]	>80	34	< 100		
CC(C)(O)c1cn(-c2ccc(-c3cc(F)c(CO)c(S(C)(=O)=O)c3)cc2F)c(C(C)(C)c2c(F)cccc2Cl)n1 [Example 7, 2-(2-(2-(2-chloro-6-fluorophenyl)propan-2-yl)-1-(3,3′-difluoro-4′-(hydroxymethyl)-5′-(methylsulfonyl)biphenyl-4-yl)-1H-imidazol-4-yl)propan-2-ol]	>80	33	< 100		
CC(C)(O)c1cn(-c2ccc(-c3cc(F)c(CO)c(S(C)(=O)=O)c3)cc2F)c(Cc2ccccc2C(F)(F)F)n1 [Example 12, 2-(1-(3,3′-difluoro-4′-(hydroxymethyl)-5′-(methylsulfonyl)biphenyl-4-yl)-2-(2-(trifluoromethyl)benzyl)-1H-imidazol-4-yl)propan-2-ol]	>80	32	< 100		
CC(C)(O)c1cn(-c2ccc(-c3cc(F)c(CO)c(S(C)(=O)=O)c3)cc2F)c(C(C)(C)c2c(Cl)cccc2Cl)n1 [Example 9, 2-(2-(2-(2,6-dichlorophenyl)propan-2-yl)-1-(3,3′-difluoro-4′-(hydroxymethyl)-5′-(methylsulfonyl)biphenyl-4-yl)-1H-imidazol-4-yl)propan-2-ol]	>80	28	< 100		
CC(C)(O)c1cn(-c2ccc(-c3cc(F)c(CO)c(S(C)(=O)=O)c3)cc2Cl)c(C(C)(C)c2c(Cl)cccc2Cl)n1 [Example 3, 2-(1-(3-chloro-3′-fluoro-4′-(hydroxymethyl)-5′-(methylsulfonyl)biphenyl-4-yl)-2-(2-(2,6-dichlorophenyl)propan-2-yl)-1H-imidazol-4-yl)propan-2-ol]	>80	16	< 100		
CC(C)(O)c1cn(-c2ccc(-c3cc(F)c(CO)c(S(C)(=O)=O)c3)cc2)c(Cc2c(Cl)cccc2Cl)n1 [Example 18, 2-(2-(2,6-dichlorobenzyl)-1-(3′-fluoro-4′-(hydroxymethyl)-5′-(methylsulfonyl)biphenyl-4-yl)-1H-imidazol-4-yl)propan-2-ol]	>80	51	< 100		
CC(C)(O)c1cn(-c2ccc(-c3cc(F)c(CO)c(S(C)(=O)=O)c3)cc2F)c(Cc2ccc(F)cc2Cl)n1 [Example 14, 2-(2-(2-chloro-4-fluorobenzyl)-1-(3,3′-difluoro-4′-(hydroxymethyl)-5′-(methylsulfonyl)biphenyl-4-yl)-1H-imidazol-4-yl)propan-2-ol]	>80	24	< 100		
CC(C)(O)c1cn(-c2ccc(-c3cc(F)c(CO)c(S(C)(=O)=O)c3)cc2F)c(Cc2ccccc2Cl)n1 [Example 20, 2-[2-(2-Chloro-benzyl)-1-(3,3′-difluoro-4′-hydroxymethyl-5′-methanesulfonyl-biphenyl-4-yl)-1H-imidazol-4-yl]-propan-2-ol]	>80	35	< 100		
CC(C)(O)c1cn(-c2ccc(-c3cc(F)c(CO)c(S(C)(=O)=O)c3)cc2)c(C(C)(C)c2ccccc2F)n1 [Example 1, 2-(1-(3′-fluoro-4′-(hydroxymethyl)-5′-(methylsulfonyl)biphenyl-4-yl)-2-(2-(2-fluorophenyl)propan-2-yl)-1H-imidazol-4-yl)propan-2-ol]	>80	28	< 100		
CC(C)(O)c1cn(-c2ccc(-c3cc(F)c(CO)c(S(C)(=O)=O)c3)cc2F)c(C(C)(C)c2ccccc2F)n1 [Example 8, 2-{1-(3,3′-Difluoro-4′-hydroxymethyl-5′-methanesulfonyl-biphenyl-4-yl)-2-[2-(2-fluorophenyl)propan-2-yl]-1H-imidazol-4-yl}-propan-2-ol]	>80	23	< 100		
CC(C)(O)c1cn(-c2ccc(-c3cc(F)c(CO)c(S(C)(=O)=O)c3)cc2Cl)c(Cc2ccc(F)cc2Cl)n1 [Example 13, 2-(1-(3-chloro-3′-fluoro-4′-(hydroxymethyl)-5′-(methylsulfonyl)biphenyl-4-yl)-2-(2-chloro-4-fluorobenzyl)-1H-imidazol-4-yl)propan-2-ol]	>80	50	< 100		
CC(c1c(Cl)cccc1Cl)c1nc(C(C)(C)O)cn1-c1ccc(-c2cc(F)c(CO)c(S(C)(=O)=O)c2)cc1F (stereo not drawn) [Example 21, 2-{2-[1-(2,6-dichlorophenyl)ethyl]-1-[3,3′-difluoro-4′-(hydroxymethyl)-5′-(methylsulfonyl)biphenyl-4-yl]-1H-imidazol-4-yl}propan-2-ol]	>80			< 100	17
CC(C)(O)c1cn(-c2ccc(-c3cccc(S(C)(=O)=O)c3)cc2)c(C(C)(C)c2ccccc2Cl)n1 [Compound No. 19, Table 1, WO 2007/002563, reference compound]	>80	55	> 1000		
CC(C)(O)c1cn(-c2ccc(-c3cc(F)c(CO)c(S(C)(=O)=O)c3)cc2F)c(Cc2ccc(Cl)cc2Cl)n1 [Example 11, 2-(2-(2,4-dichlorobenzyl)-1-(3,3′-difluoro-4′-(hydroxymethyl)-5′-(methylsulfonyl)biphenyl-4-yl)-1H-imidazol-4-yl)propan-2-ol]	>80	16	< 100		
CC(C)(O)c1cn(-c2ccc(-c3cc(F)c(CO)c(S(C)(=O)=O)c3)cc2)c(C(C)(C)c2c(Cl)cccc2Cl)n1 [Example 5, 2-(2-(2-(2,6-dichlorophenyl)propan-2-yl)-1-(3′-fluoro-4′-(hydroxymethyl)-5′-(methylsulfonyl)biphenyl-4-yl)-1H-imidazol-4-yl)propan-2-ol]	>80	43	< 100		
